According to patent publication US11753446B2, “Beta-hairpin peptidomimetics” (POLYPHOR AG, priority 2014, dated 2023):
Where a SMILES comes first, the peptide text is derived from it. Bridges are numbered along the chain shown (N, C = ends). [ ]: non-standard residue; d: D form. dDab = NCC[C@@H](N)C(=O)O; Orn = NCCC[C@H](N)C(=O)O; Dab = NCC[C@H](N)C(=O)O; Dap = NC[C@H](N)C(=O)O

Tests used:
[1] = system: human red blood cells (hRBC); assay: Hemolysis: hemolytic activity at 100 μg/mL, 1 h at 37° C.; settings: red cells of human, 1 h, 100
Summary of the method: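 Peptides at 100 μg/mL incubated with washed 20% (v/v) human erythrocytes (~0.9×10^9 cells/mL) for 1 h at 37 °C with shaking. Released hemoglobin read at OD 540 nm in supernatant; 0% and 100% lysis from PBS/0.001% acetic acid and 2.5% Triton X-100.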

[2] = system: Escherichia coli ATCC 25922; type: cell-based; settings: ATCC 25922
Summary of the method: (§1)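 Peptide MICs were determined by NCCLS broth microdilution in cation-adjusted Mueller-Hinton II broth. Inoculum was about 10^6 CFU/mL, matched to 0.5 McFarland, with peptides in two-fold serial dilutions. The broth contained Polysorbate 80 at 0.002% final concentration.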

[3] = system: Klebsiella pneumoniae ATCC 13883; type: cell-based; settings: ATCC 13883
Summary of the method: as §1

[4] = system: Acinetobacter baumannii DSM 30008; type: cell-based; settings: DSM 30008
Summary of the method: as §1

Compound	Hemolysis at 100 μg/mL [1]	Escherichia coli ATCC 25922 MIC [2]	Klebsiella pneumoniae ATCC 13883 MIC [3]	Acinetobacter baumannii DSM 30008 MIC [4]
CC(C)C[C@@H]1NC(=O)[C@H](CCCNC(=N)N)NC(=O)[C@@H](CCN)NC(=O)[C@H](C(C)C)NC(=O)[C@@H]2CSSC[C@H](NC1=O)C(=O)N[C@@H](Cc1ccc(O)cc1)C(=O)N[C@@H](C)C(=O)N[C@@H](CCCN)C(=O)N[C@H](CCN)C(=O)N[C@@H](CCN)C(=O)N[C@@H](Cc1ccccc1)C(=O)N[C@@H](C)C(=O)N[C@@H](Cc1ccc(O)cc1)C(=O)N2 [Example 19, cyclo(-Leu-Cys-Tyr-Ala-Orn-^DDab-Dab-Phe-Ala-Tyr-Cys-Val-^DDab-Arg-)] (HELM PEPTIDE1{A.[Orn].[NCC[C@@H](N[*:1])C(=O)[*:2]].[Dab].F.A.Y.C.V.[NCC[C@@H](N[*:1])C(=O)[*:2]].R.L.C.Y}$PEPTIDE1,PEPTIDE1,8:R3-13:R3|PEPTIDE1,PEPTIDE1,1:R1-14:R2$$$V2.0)	1%	0.5 µg/mL	1 µg/mL	1 µg/mL
CC(C)C[C@@H]1NC(=O)[C@H](CCN)NC(=O)[C@@H](CCN)NC(=O)[C@H](C(C)C)NC(=O)[C@@H]2CSSC[C@H](NC1=O)C(=O)N[C@@H](Cc1ccc(O)cc1)C(=O)N[C@@H](CC(N)=O)C(=O)N[C@@H](CCCN)C(=O)N[C@H](CCN)C(=O)N[C@@H](CCN)C(=O)N[C@@H](Cc1c[nH]c3ccccc13)C(=O)N[C@@H](CO)C(=O)N[C@@H](Cc1ccc(O)cc1)C(=O)N2 [Example 51, cyclo(-Leu-Cys-Tyr-Asn-Orn-^DDab-Dab-Trp-Ser-Tyr-Cys-Val-^DDab-Dab-)] (HELM PEPTIDE1{C.V.[NCC[C@@H](N[*:1])C(=O)[*:2]].[Dab].L.C.Y.N.[Orn].[NCC[C@@H](N[*:1])C(=O)[*:2]].[Dab].W.S.Y}$PEPTIDE1,PEPTIDE1,1:R3-6:R3|PEPTIDE1,PEPTIDE1,1:R1-14:R2$$$V2.0)	2%	0.75 µg/mL	0.75 µg/mL	0.75 µg/mL
CC(C)C[C@@H]1NC(=O)[C@H](CCCNC(=N)N)NC(=O)[C@@H](CCN)NC(=O)[C@H](Cc2ccc(O)cc2)NC(=O)[C@@H]2CSSC[C@H](NC1=O)C(=O)N[C@@H](Cc1ccc(O)cc1)C(=O)N[C@@H](CC(N)=O)C(=O)N[C@@H](CCCN)C(=O)N[C@H](CCN)C(=O)N[C@@H](CCN)C(=O)N[C@@H](Cc1c[nH]c3ccccc13)C(=O)N[C@@H](CO)C(=O)N[C@@H](Cc1ccc(O)cc1)C(=O)N2 [Example 11, cyclo(-Leu-Cys-Tyr-Asn-Orn-^DDab-Dab-Trp-Ser-Tyr-Cys-Tyr-^DDab-Arg-)] (HELM PEPTIDE1{C.Y.N.[Orn].[NCC[C@@H](N[*:1])C(=O)[*:2]].[Dab].W.S.Y.C.Y.[NCC[C@@H](N[*:1])C(=O)[*:2]].R.L}$PEPTIDE1,PEPTIDE1,1:R3-10:R3|PEPTIDE1,PEPTIDE1,1:R1-14:R2$$$V2.0)	4%	0.25 µg/mL	0.25 µg/mL	0.5 µg/mL
CC(C)C[C@@H]1NC(=O)[C@H](CN)NC(=O)[C@@H](CCN)NC(=O)[C@H](C(C)C)NC(=O)[C@@H]2CSSC[C@H](NC1=O)C(=O)N[C@@H](Cc1ccc(O)cc1)C(=O)N[C@@H](CC(N)=O)C(=O)N[C@@H](CCCN)C(=O)N[C@H](CCN)C(=O)N[C@@H](CCN)C(=O)N[C@@H](Cc1c[nH]c3ccccc13)C(=O)N[C@@H](CO)C(=O)N[C@@H](Cc1ccc(O)cc1)C(=O)N2 [Example 68, cyclo(-Leu-Cys-Tyr-Asn-Orn-^DDab-Dab-Trp-Ser-Tyr-Cys-Val-^DDab-Dap-)] (cyclo(CV[dDab][Dap]LCYN[Orn][dDab][Dab]WSY); disulfide 1-6)	1%	0.75 µg/mL	0.5 µg/mL	1.25 µg/mL
